{"source": "paper PMC4428793", "about": "“MK571 inhibits phase-2 conjugation of flavonols by Caco-2/TC7 cells, but does not specifically inhibit their apical efflux^” (Biochemical Pharmacology, 2015)", "key": {"Bcrp1": {"system": "Bcrp1", "design": "method as in PMID 15749994", "settings": "Mrp2 deficient rats; ref [33]; cited from earlier work"}, "Caco-2/TC7 cells": {"system": "Caco-2/TC7 cells", "test": "Flavonol metabolism and transport experiments on Caco-2/TC7 transwell monolayers, effect of MK571", "assay_type": "cell-based, human", "protocol": "Cells were grown at 37 °C in a humidified incubator with 5% CO2 in Dulbecco Modified Eagle's Medium (DMEM) containing 1% non-essential amino acids, 1% L-glutamine, 100 IU/mL penicillin and 100 μg/mL streptomycin, 1 g/L glucose, and supplemented with 20% (v/v) heat inactivated fetal calf serum. Cells were passaged at 80% confluency, and seeded at 2–4 × 10^4 cells per cm^2 on 10 cm dishes (growing area 75 cm^2) or 12-well transwells (growing area of 1.1 cm^2). […] Toxicity of MK571 on Caco-2/TC7 cell monolayers was determined through comparison of pre- and post-loading TEER values of wells incubated with MK571.\nFlavonol stocks (quercetin, kaempferol, galangin; 10 mM) were prepared in dimethylsulfoxide (DMSO) and stored at −20 °C. MK571 was dissolved in dimethyl sulfoxide (10 mM final concentration) and stored at −20 °C. Prior to the metabolism or transport experiments, cells were aspirated of media and washed three times with phosphate buffered saline (PBS). To foetal calf serum and phenol red-free DMEM was added ascorbic acid at a final concentration of 100 μM as well as MK571 at the desired concentration. For metabolism experiments, 10 mL of this media was added to the cells in 10 cm dishes. For transport experiments using transwells, 0.6 mL of this media was added to the apical compartment of the transwell and 1 mL was added to the basolateral compartment. Control wells received an equivalent dose of dimethyl sulfoxide as the treatment wells. Cells were incubated at 37 °C for 30 min, after which flavonols dissolved in dimethyl sulfoxide (kaempferol, galangin or quercetin) were added to the media of treatment wells at a final concentration of 40 or 100 μM, while control wells were treated with the dimethyl sulfoxide vehicle alone. Concentrations of quercetin were increased to 100 μM because instability of quercetin in media necessitated higher initial loading to maintain adequate cellular and media concentrations for uptake and metabolism of the flavonol. Control and treatment cells were incubated at 37 °C for the periods indicated in the results.\nFollowing the required incubation period, media and cell fractions were harvested and analysed to identify and quantify flavonol metabolites using HPLC. Media was removed from the apical (0.5 mL) and basolateral (0.5 mL) compartments of transwells and added to 25 μL trifluoroacetic acid and 25 μL HPLC grade acetonitrile. Media from 10 cm dishes (1 mL) was removed and added to 50 μL trifluoroacetic acid and 25 μL HPLC grade acetonitrile. Cells were washed three times with cold (room temperature) phosphate buffered saline solution and scraped free of the dish surface. For transwells, 100 μL MilliQ water was added to the cells and the resulting cell suspension pipetted into 10 μL trifluoroacetic acid and 10 μL HPLC grade acetonitrile. For 10 cm dishes, the resulting cell suspension was pipetted into 25 μL trifluoroacetic acid and 25 μL HPLC grade acetonitrile. Samples were either analysed immediately or otherwise stored at −20 °C prior to HPLC analysis. Flavonols were stable during frozen storage and thawing (no significant losses up to 26 weeks).\nMedia samples were thawed where necessary and then mixed using a vortex mixer, centrifuged for 10 min at 14,000 × g using a micro centrifuge, and the supernatant removed and placed in an HPLC vial for analysis. Cell samples were vortex-mixed and then ultra-sonicated (sonic water bath) for 10 min, vortex mixed again and then centrifuged for 10 min at 14,000 × g using a micro-centrifuge, before removal of supernatant for HPLC analysis. Identification and quantification of individual flavonol metabolites was carried out using liquid chromatography–mass spectrometry and nuclear magnetic resonance analyses, as described previously. […]"}, "[1]": {"system": "UDP-β-D-glucuronosyl transferase (UDP-GT) activity in the Caco2 cell-free extracts", "test": "Enzyme kinetics of kaempferol glucuronidation in Caco2 cell-free extracts (Km, Vmax, Ki)", "assay_type": "biochemical, human", "settings": "substrate kaempferol 5–150 μM; estimated from reciprocal plots; read-out: Ki for inhibition of the synthesis of K-4′-O-GlcA", "protocol": "Cells were grown until 21 days post confluent and washed and aspirated as described previously. The cells were then scraped into tubes and these tubes kept on ice at all times throughout the preparation procedure. Homogenisation buffer comprised of sodium phosphate buffer (50 mM adjusted to pH 6.5; 20 mL), two mini protease inhibitor cocktail tablets containing EDTA and perfabloc, dithiothreitol (30.8 mg), alamethacin (20 μL of a 22 μg/mL) solution from T. viride; and MgCl2 (3.5 mg). Cell-free homogenates were prepared by mixing cells with homogenisation buffer (50:50, vol/vol) and vortexing with glass beads in an eppendorf tube three times for 1 min over a 10 min period. […] The supernatant was removed and analysed via HPLC.\nEstimates of initial rates (v) of formation of flavonol conjugates by UDP-β-D-glucuronosyl transferase (UDP-GT) activity in the Caco2 cell-free extracts were calculated for each concentration of S (S = kaempferol; [S] range 5–150 μM). […] The type of inhibition was determined by plotting 1/v versus 1/S for each of the inhibitor (MK571) concentrations tested and observing the location of the intersection of the lines, which also gave estimated values for Km and Vmax. […]"}, "Caco-2 cells": {"system": "Caco-2 cells", "settings": "cited from earlier work"}, "[2]": {"system": "Caco-2 cell culture model", "design": "method as in PMID 12893842", "settings": "50 μM MK571; ref [39]; cited from earlier work"}, "[3]": {"settings": "50 μM MK571, vs vehicle-only control, transwell monolayers"}, "[4]": {"settings": "galangin 40 μM + 50 μM MK571 apical, 60 min"}, "[5]": {"settings": "in the presence of MK571 (Table 1: 50 μM)"}, "[6]": {"settings": "kaempferol 40 μM + 50 μM MK571 apical, 60 min"}, "[7]": {"settings": "kaempferol 40 μM + 100 μM MK571 apical, 60 min"}, "[8]": {"settings": "quercetin 100 μM + 50 μM MK571 apical, 60 min"}, "[9]": {"settings": "50 μM MK571, Caco-2 cells, ref Walle et al. [28]"}}, "note": "Values joined by “and” are separate entries in the source; they are usually repeats but may differ in a detail not shown here. Equal values may be shown once.", "data": [{"smiles": "COc1ccc2c3c([nH]c2c1)[C@H](C=C(C)C)N1C(=O)[C@@H]2CCCN2C(=O)[C@@H]1C3", "note": "[FTC]", "values": [{"measurement": "Total plasma quercetin and isorhamnetin concentrations", "setting": "Bcrp1", "result": "twice that of controls"}]}, {"smiles": "CN(C)C(=O)CCSC(SCCC(=O)O)c1cccc(/C=C/c2ccc3ccc(Cl)cc3n2)c1", "note": "(stereo not shown) [MK571]", "values": [{"measurement": "Increase in galangin aglycone concentration of the cellular extract", "setting": "Caco-2/TC7 cells; 50 μM MK571", "result": "+180%"}, {"measurement": "Increase in kaempferol aglycone concentration of the cellular extract", "setting": "Caco-2/TC7 cells; 50 μM MK571", "result": "+182%"}, {"measurement": "Increase in quercetin aglycone concentration of the cellular extract", "setting": "Caco-2/TC7 cells; 50 μM MK571", "result": "+119%"}, {"measurement": "Reduction in production of kaempferol sulphates", "setting": "Caco-2/TC7 cells; 50 μM MK571", "result": 50.8, "unit": "%"}, {"measurement": "Reduction in production of total kaempferol glucuronides", "setting": "Caco-2/TC7 cells; 50 μM MK571", "result": 52.3, "unit": "%"}, {"measurement": "Reduction in apical efflux of kaempferol conjugates", "setting": "Caco-2/TC7 cells; 50 μM MK571, vs no MK571, transwell monolayers", "result": "44% and 43.2%"}, {"measurement": "Reduction in apical efflux of galangin conjugates", "setting": "Caco-2/TC7 cells; [3]", "result": "38% and 38.5%"}, {"measurement": "Reduction in apical efflux of quercetin conjugates", "setting": "Caco-2/TC7 cells; [3]", "result": 37.1, "unit": "%"}, {"measurement": "Increase in kaempferol aglycone concentration of the cellular extract", "setting": "Caco-2/TC7 cells; 100 μM MK571", "result": "+229%"}, {"measurement": "Reduction in production of kaempferol sulphates", "setting": "Caco-2/TC7 cells; 100 μM MK571", "result": 88.4, "unit": "%"}, {"measurement": "Reduction in production of total kaempferol glucuronides", "setting": "Caco-2/TC7 cells; 100 μM MK571", "result": 67.2, "unit": "%"}, {"measurement": "Apical galangin conjugates, change vs no MK571", "setting": "Caco-2/TC7 cells; [4]", "result": "−38.5", "unit": "%"}, {"measurement": "Apical galangin conjugates, rate", "setting": "Caco-2/TC7 cells; [4]", "result": 1.789, "unit": "nmol/h"}, {"measurement": "Basolateral galangin conjugates, change vs no MK571", "setting": "Caco-2/TC7 cells; [4]", "result": "−43.6", "unit": "%"}, {"measurement": "Basolateral galangin conjugates, rate", "setting": "Caco-2/TC7 cells; [4]", "result": 2.279, "unit": "nmol/h"}, {"measurement": "Cellular galangin conjugates, change vs no MK571", "setting": "Caco-2/TC7 cells; [4]", "result": "−28.7", "unit": "%"}, {"measurement": "Cellular galangin conjugates, rate", "setting": "Caco-2/TC7 cells; [4]", "result": 0.004, "unit": "nmol/h"}, {"measurement": "Total galangin conjugates, change vs no MK571", "setting": "Caco-2/TC7 cells; [4]", "result": "−41.4", "unit": "%"}, {"measurement": "Total galangin conjugates, rate", "setting": "Caco-2/TC7 cells; [4]", "result": 4.072, "unit": "nmol/h"}, {"measurement": "Decrease in galangin glucuronides", "setting": "Caco-2/TC7 cells; [5]", "result": 42.8, "unit": "%"}, {"measurement": "Decrease in galangin sulphates", "setting": "Caco-2/TC7 cells; [5]", "result": 37.0, "unit": "%"}, {"measurement": "Decrease in quercetin glucuronides", "setting": "Caco-2/TC7 cells; [5]", "result": 56.5, "unit": "%"}, {"measurement": "Decrease in quercetin sulphates", "setting": "Caco-2/TC7 cells; [5]", "result": 39.6, "unit": "%"}, {"measurement": "Apical kaempferol conjugates, change vs no MK571", "setting": "Caco-2/TC7 cells; [6]", "result": "−43.2", "unit": "%"}, {"measurement": "Apical kaempferol conjugates, rate", "setting": "Caco-2/TC7 cells; [6]", "result": 1.196, "unit": "nmol/h"}, {"measurement": "Basolateral kaempferol conjugates, change vs no MK571", "setting": "Caco-2/TC7 cells; [6]", "result": "−56.7", "unit": "%"}, {"measurement": "Basolateral kaempferol conjugates, rate", "setting": "Caco-2/TC7 cells; [6]", "result": 1.484, "unit": "nmol/h"}, {"measurement": "Cellular kaempferol conjugates, change vs no MK571", "setting": "Caco-2/TC7 cells; [6]", "result": "−20.0", "unit": "%"}, {"measurement": "Cellular kaempferol conjugates, rate", "setting": "Caco-2/TC7 cells; [6]", "result": 0.004, "unit": "nmol/h"}, {"measurement": "Total kaempferol conjugates, change vs no MK571", "setting": "Caco-2/TC7 cells; [6]", "result": "−51.5", "unit": "%"}, {"measurement": "Total kaempferol conjugates, rate", "setting": "Caco-2/TC7 cells; [6]", "result": 2.684, "unit": "nmol/h"}, {"measurement": "Apical kaempferol conjugates, change vs no MK571", "setting": "Caco-2/TC7 cells; [7]", "result": "−81.9", "unit": "%"}, {"measurement": "Apical kaempferol conjugates, rate", "setting": "Caco-2/TC7 cells; [7]", "result": 0.382, "unit": "nmol/h"}, {"measurement": "Basolateral kaempferol conjugates, change vs no MK571", "setting": "Caco-2/TC7 cells; [7]", "result": "−69.0", "unit": "%"}, {"measurement": "Basolateral kaempferol conjugates, rate", "setting": "Caco-2/TC7 cells; [7]", "result": 1.062, "unit": "nmol/h"}, {"measurement": "Cellular kaempferol conjugates, change vs no MK571", "setting": "Caco-2/TC7 cells; [7]", "result": "−24.2", "unit": "%"}, {"measurement": "Cellular kaempferol conjugates, rate", "setting": "Caco-2/TC7 cells; [7]", "result": 0.003, "unit": "nmol/h"}, {"measurement": "Total kaempferol conjugates, change vs no MK571", "setting": "Caco-2/TC7 cells; [7]", "result": "−73.9", "unit": "%"}, {"measurement": "Total kaempferol conjugates, rate", "setting": "Caco-2/TC7 cells; [7]", "result": 1.447, "unit": "nmol/h"}, {"measurement": "Apical quercetin conjugates, change vs no MK571", "setting": "Caco-2/TC7 cells; [8]", "result": "−37.1", "unit": "%"}, {"measurement": "Apical quercetin conjugates, rate", "setting": "Caco-2/TC7 cells; [8]", "result": 0.706, "unit": "nmol/h"}, {"measurement": "Basolateral quercetin conjugates, change vs no MK571", "setting": "Caco-2/TC7 cells; [8]", "result": "−56.3", "unit": "%"}, {"measurement": "Basolateral quercetin conjugates, rate", "setting": "Caco-2/TC7 cells; [8]", "result": 1.275, "unit": "nmol/h"}, {"measurement": "Cellular quercetin conjugates, change vs no MK571", "setting": "Caco-2/TC7 cells; [8]", "result": "−2.72", "unit": "%"}, {"measurement": "Cellular quercetin conjugates, rate", "setting": "Caco-2/TC7 cells; [8]", "result": 0.004, "unit": "nmol/h"}, {"measurement": "Total quercetin conjugates, change vs no MK571", "setting": "Caco-2/TC7 cells; [8]", "result": "−50.9", "unit": "%"}, {"measurement": "Total quercetin conjugates, rate", "setting": "Caco-2/TC7 cells; [8]", "result": 1.985, "unit": "nmol/h"}, {"measurement": "Ki", "setting": "[1]", "result": 19.7, "unit": "µM"}, {"measurement": "Inhibition of chrysin glucuronide efflux", "setting": "Caco-2 cells; [9]", "result": 71, "unit": "%"}, {"measurement": "Inhibition of chrysin sulphate efflux", "setting": "Caco-2 cells; [9]", "result": 25, "unit": "%"}, {"measurement": "Efflux of methylated sulphate conjugates and sulphate conjugates of epigallocatechin", "setting": "Caco-2 cells; 50 μM, ref [35]", "result": "substantially inhibited"}, {"measurement": "Inhibition of apical efflux of epicatechin sulphate conjugates", "setting": "Caco-2 cells; ref [36]", "result": "> 50", "unit": "%"}, {"measurement": "Apigenin sulfation", "setting": "[2]", "result": "not inhibited"}, {"measurement": "Inhibition of apigenin glucuronidation", "setting": "[2]", "result": "30–40%"}]}]}
